Measured values as given in US6906198B1, “Antipicornaviral compounds, their preparation and use” (Agouron Pharmaceuticals, Inc., priority 1998, dated 2005).

Legend:
[1] = Cytotoxicity in mock-infected H1-HeLa cells (antirhinoviral assay, XTT); assay type: cell-based; conditions: human, 50% cytotoxic dose
Experimental: (§1) H1-HeLa cells were infected with HRV-14 at a multiplicity of infection (m.o.i.) of 0.13 (virus particles/cell) or mock-infected with medium only. Infected or mock-infected cells were resuspended at 8×10^5 cells per mL, and incubated with appropriate concentrations of the compounds to be tested. Two days later, XTT/PMS was added to test plates and the amount of formazan produced was quantified spectrophotometrically at 450/650 nm. The EC50 value was calculated as the concentration of compound that increased the percentage of formazan production in compound-treated, virus-infected cells to 50% of that produced by compound-free, mock-infected cells. The 50% cytotoxic dose (CC50) was calculated as the concentration of compound that decreased the percentage of formazan produced in compound-treated, mock-infected cells to 50% of that produced by compound-free, mock-infected cells. The therapeutic index (TI) was calculated by dividing the CC50 value by the EC50 value.
(§2) All strains of human rhinovirus (HRV) for use in this assay were purchased from American Type Culture Collection (ATCC), except for HRV serotype-14 (produced from the infectious cDNA clone constructed by Dr. Robert Rueckert, Institute for Molecular Virology, University of Wisconsin, Madison, Wis.). HRV stocks were propagated and viral assays were performed in H1-HeLa cells (ATCC). Cells were grown in minimal essential medium with 10% fetal bovine serum, available from Life Technologies (Gaithersburg, Md.).

[2] = Cytotoxicity in uninfected H1-HeLa cells (anticoxsackieviral assay, XTT); assay type: cell-based; conditions: human; 50% cytotoxic dose, uninfected H1-HeLa cells (Table 4)
Experimental: (§3) Coxsackievirus types A-21 (CAV-21) and B3 (CVB-3) were purchased from American Type Culture Collection (ATCC, Rockville, Md.). Virus stocks were propagated and antiviral assays were performed in H1-HeLa cells (ATCC). Cells were grown in minimal essential medium with 10% fetal bovine serum (Life Technologies, Gaithersburg, Md.).
(§4) The ability of compounds to protect cells against either CAV-21 or CVB-3 infection was measured by the XTT dye reduction method. This method is described in Weislow et al., J. Natl. Cancer Inst. 1989, vol. 81, 577-586. H1-HeLa cells were infected with CAV-21 or CVB-3 at a multiplicity of infection (m.o.i.) of 0.025 or 0.075, respectively, or mock-infected with medium only. H1-HeLa cells were plated at 4×10^4 cells per well in a 96-well plate and incubated with appropriate concentrations of the test compound. One day (CVB-3) or two days (CAV-21) later, XTT/PMS was added to test plates and the amount of formazan produced was quantified spectrophotometrically at 450/650 nm. The EC50 was calculated as the concentration of compound that increased the formazan production in compound-treated, virus-infected cells to 50% of that produced by compound-free, uninfected cells. The 50% cytotoxic dose (CC50) was calculated as the concentration of compound that decreased formazan production in compound-treated, uninfected cells to 50% of that produced in compound-free, uninfected cells. The therapeutic index (TI) was calculated by dividing the CC50 by the EC50.

[3] = Cytotoxicity in uninfected MRC-5 cells (anti-echoviral/-enteroviral assay, XTT); assay type: cell-based; conditions: human, 50% cytotoxic dose
Experimental: Echovirus type 11 (EV 11) and enterovirus type 70 (EV 70) were purchased from ATCC (Rockville, Md.). Virus stocks were propagated and antiviral assays were performed in MRC-5 cells (ATCC). Cells were grown in minimal essential medium with 10% fetal bovine serum (Life Technologies, Gaithersburg, Md.).
The ability of compounds to protect cells against either EV 11 or EV 70 infection was measured by the XTT dye reduction method (Weislow et al., J. Natl. Cancer Inst. 1989, vol. 81, 577-586). MRC-5 cells were infected with EV 11 or EV 70 at an m.o.i. of 0.003 or 0.004, respectively, or mock-infected with medium only. Infected or uninfected cells were added at 1×10^4 cells per well and incubated with appropriate concentrations of compound. Four days later, XTT/PMS was added to test plates, and the amount of formazan produced was quantified spectrophotometrically at 450/650 nm. The EC50 was calculated as the concentration of compound that increased the formazan production in compound-treated, virus-infected cells to 50% of that produced by compound-free, uninfected cells. The 50% cytotoxic dose (CC50) was calculated as the concentration of compound that decreased formazan production in compound-treated, uninfected cells to 50% of that produced in compound-free, uninfected cells. The therapeutic index (TI) was calculated by dividing the CC50 by the EC50.

[4] = system: HRV-14; experiment: Antirhinoviral H1-HeLa cell culture assay (XTT), HRV-14; assay type: cell-based, human rhinovirus; conditions: HRV serotype-14, H1-HeLa cells (Table 3); read-out: EC50
Experimental: Antirhinoviral H1-HeLa Cell Culture Assay
In this cell protection assay, the ability of compounds to protect cells against HRV infection was measured by the XTT dye reduction method, which is described in Weislow et al., J. Natl. Cancer Inst. 1989, vol. 81, 577-586.
as §1, §2
The compounds were tested against control compounds WIN 51711, WIN 52084, and WIN 54954 (obtained from Sterling-Winthrop Pharmaceuticals), Pirodavir (obtained from Janssen Pharmaceuticals), and Pleconaril (prepared according to the method described in Diana et al., J. Med. Chem 1995, vol. 38, 1355). Antiviral data obtained for the test compounds are shown in Tables 1 and 3, where all data are for HRV serotype-14 unless otherwise noted in parentheses.

[5] = system: H1-HeLa cells; experiment: Cytotoxicity in mock-infected H1-HeLa cells (antirhinoviral assay, XTT); assay type: cell-based; conditions: 50% cytotoxic dose
Experimental: as §1, §2

[6] = system: Coxsackievirus type A-21 (CAV-21); experiment: Anticoxsackieviral cell culture assay (XTT), CAV-21; assay type: cell-based; conditions: CAV-21, H1-HeLa cells; read-out: EC50
Experimental: (§5) Anticoxsackieviral Cell Culture Assay
as §3
as §4, with “The 50% cytotoxic dose (CC50) was calculated as the concentration of compound that decreased formazan production in compound-treated, uninfected cells to 50% of that produced in compound-free, uninfected cells.” left out, “EC50. […]” for “EC50.”

[7] = system: Coxsackievirus type B3 (CVB-3); experiment: Anticoxsackieviral cell culture assay (XTT), CVB-3; assay type: cell-based; conditions: CVB-3, H1-HeLa cells; read-out: EC50
Experimental: as §5, §3
as §4, with “The 50% cytotoxic dose (CC50) was calculated as the concentration of compound that decreased formazan production in compound-treated, uninfected cells to 50% of that produced in compound-free, uninfected cells.” left out, “EC50. […]” for “EC50.”

[8] = system: H1-HeLa cells; experiment: Cytotoxicity in uninfected H1-HeLa cells (anticoxsackieviral assay, XTT); assay type: cell-based; conditions: 50% cytotoxic dose, uninfected H1-HeLa cells (Table 4)
Experimental: as §3, §4

| Structure (SMILES) | CC50 at 2 days [1] [µM] | CC50 [2] [µM] | CC50 at 4 days [3] [µM] | EC50 [4] [µM] | CC50 [5] [µM] | EC50 [6] [µM] | EC50 [7] [µM] | CC50 [8] [µM] |
| --- | --- | --- | --- | --- | --- | --- | --- | --- |
| CCOC(=O)c1ccc(OCCC2CCN(c3ccc(C)nn3)CC2)cc1 [Pirodavir, reference compound] | > 10 | > 100 | > 10 | – | – | – | – | – |
| Cc1cc(CCCOc2c(C)cc(-c3noc(C(F)(F)F)n3)cc2C)on1 [Pleconaril, reference compound] | > 10 | > 10 | > 10 | – | – | – | – | – |
| Cc1cc(CCCCCCCOc2ccc(C3=NCCO3)cc2)on1 [WIN 51711, reference compound] | – | – | – | 0.78 | > 60 | – | – | – |
| Cc1cc(CCCCCCCOc2ccc(C3=N[C@@H](C)CO3)cc2)on1 [WIN 52084, reference compound] | – | – | – | 0.07 | > 10 | – | – | – |
| Cc1cc(CCCCCOc2c(Cl)cc(C3=NCCO3)cc2Cl)on1 [WIN 54954, reference compound] | – | – | – | 2.13 | > 63 | > 100 | > 100 | > 100 |
